# Positions of bridges follow the written chain, without caps; N, C: chain ends. Non-standard residues stand in square brackets, D forms with d. Residues, ends and D or L forms follow the SMILES beside them. No end group written: not given here.
# Key:
# [1] = system: MCP-1 induced THP-1 migration; assay: THP-1 trans-well migration assay, MCP-1 as chemoattractant; type: cell-based, human; details: for ED50 v MCP-1: MCP-1 induced chemotaxis of THP-1 cells; for % inhibition at 100 µM versus MCP-1: THP-1 migration, agent at 100 µM with the cells, n.s. or dash = no statistically significant inhibition; for ED50 (µM) versus MCP-1: inhibition of THP-1 migration, n.s./ns = not statistically significant
# Method: (§1) To determine whether an agent inhibits a chemokine-induced activity, such as macrophage recruitment, varying amounts of the agent are mixed with cells in the presence of a known chemoattractant. For example, a range of known concentrations of an agent, e.g., a chemokine peptide, is incubated with a defined number (e.g., 10^4 - […]) of human THP-1 monocyte cells in individual wells of the top compartment of a trans-well plate. Chemokine (such as MCP-1, MIP1α, IL8 or SDF-1α), at a concentration known to cause significant migration of THP-1 cells in the trans-well migration assay, is placed in the lower compartment (Figure 1). Cells are then incubated at 37°C for a period sufficient to allow migration, e.g., 4 hours. After incubation, the cells are gently removed from the top of the filter with a pipette, 20 µl of 20 mM EDTA in simple PBS is added into each top well, and incubated for 20 minutes at 4°C. The filter is carefully flushed with media using a gentle flow, and removed. A standard curve consisting of a two-fold dilution series of THP-1 cells (in 29 µl) is prepared to accurately quantify the number of cells that have migrated. Migrated cells are stained with 3 µl of MTT stock dye solution which is added directly into each well (5 mg/ml in RPMI-1640 without phenol red, Sigma Chemical Co.) and incubated at 37°C for 4 hours. The media is carefully aspirated from each well, and the converted dye is solubilized by 20 µl of DMSO. Absorbance of converted dye is measured at a wavelength of 595 nm using an ELISA plate reader. The number of migrated cells in each well is then determined by interpolation of the standard curve (see also Imai et al.,J. Biol. Chem., 272, 15036 (1997)).
# Any method suitable for counting cells can be used, for example, counting with a hemocytometer, incubation of the cells with MTT (see above), or FACS analysis. A negative control assay is also performed, using TGF-β or another non-chemokine chemoattractant (e.g., IL1β or TNFα). To assess whether the agent is cytotoxic, the same concentrations of agent are incubated with THP-1 cells. Agents which 1) are not cytotoxic at levels which inhibit migration, 2) are ineffective at inhibiting the negative control-induced migration, and 3) reduce or inhibit chemokine-induced THP-1 migration, are agents which fall within the scope of the invention.
# For this assay, THP-1 cells were maintained at a density of 4 × 10^5 cells per ml in RPMI-1640 supplemented with 10% fetal calf serum + 20 µM 2-mercaptoethanol. Chemotaxis was induced in a 96-well disposable chemotaxis chamber fitted with a 5 µM polycarbonate filter (PVP free, ChemoTX, Neuroprobe Inc., Cabin John). […] The framed filter was aligned with the holes in the corner of the filter frame and placed over the wells.
# (§2) Five × 10^4 THP-1 cells in 25 µl of RPMI-1640 were added to the upper compartment. Peptides were dissolved in Milli Q water and then serially diluted in culture medium. In most cases, the serially diluted peptides were added to the upper compartment of the chemotaxis chamber. The chamber was incubated at 37°C in a humidified atmosphere of 5% CO2 for 4 hours.
# After incubation, the cells were gently removed from the top of the filter with a pipette, 20 µl of 20 mM EDTA in PBS was added into each top well, and the mixture was incubated for 20 minutes at 4°C. The filter was then carefully flushed with media using a gentle flow, and removed. A standard curve was prepared to accurately quantify the number of THP-1 cells that had migrated. The curve was based on a two-fold dilution series of THP-1 cells (top standard 100,000 cells in 29 µl). Cells which had migrated, and in separate wells, the cells in the standards, were stained with 3 µl of MTT stock solution which was added directly into each well (5 mg/ml in RPMI 1640 without phenol red, Sigma Chemical Co.) and incubated at 37°C for 4 hours. The media was carefully aspirated from each well, and the converted dye was solubilized by 20 µl of DMSO. […]
# [2] = molecular target: T1, Duffy Antigen Receptor for Chemokines (DARC) (Homo sapiens, UniProt Q16570); assay: DARC binding: competition with 125I-MCP-1 on red blood cells; details: for DARC binding (µM): ns = not significantly different from control, >100 = not determined
# T1 sequence (Q16570 1-336): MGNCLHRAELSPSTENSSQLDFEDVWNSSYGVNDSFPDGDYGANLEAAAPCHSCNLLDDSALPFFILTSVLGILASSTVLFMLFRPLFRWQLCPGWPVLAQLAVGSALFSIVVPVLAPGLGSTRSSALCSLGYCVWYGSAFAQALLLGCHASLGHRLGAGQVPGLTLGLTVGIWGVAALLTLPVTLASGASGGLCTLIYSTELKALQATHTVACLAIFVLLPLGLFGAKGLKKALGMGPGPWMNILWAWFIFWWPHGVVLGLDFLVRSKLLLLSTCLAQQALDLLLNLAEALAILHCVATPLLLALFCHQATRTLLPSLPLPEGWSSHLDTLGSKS
# [3] = system: SDF-1α induced THP-1 migration; assay: THP-1 trans-well migration assay, SDF-1α as chemoattractant; type: cell-based, human; details: for ED50 (µM) versus SDF-1α: inhibition of THP-1 migration, n.s./ns = not statistically significant
# Method: as §1
# (§3) For this assay, THP-1 cells were maintained at a density of 4 × 10^5 cells per ml in RPMI-1640 supplemented with 10% fetal calf serum + 20 µM 2-mercaptoethanol. Chemotaxis was induced in a 96-well disposable chemotaxis chamber fitted with a 5 µM polycarbonate filter (PVP free, ChemoTX, Neuroprobe Inc., Cabin John). Twenty-nine µl of chemoattractant (recombinant human chemokine; 50 ng/ml, i.e., 5.9 nM) or control (100 ng/ml TGFβ) was added to the lower compartment of each well. The framed filter was aligned with the holes in the corner of the filter frame and placed over the wells.
# as §2
# (§4) After incubation, the cells were gently removed from the top of the filter with a pipette, 20 µl of 20 mM EDTA in PBS was added into each top well, and the mixture was incubated for 20 minutes at 4°C. The filter was then carefully flushed with media using a gentle flow, and removed. A standard curve was prepared to accurately quantify the number of THP-1 cells that had migrated. The curve was based on a two-fold dilution series of THP-1 cells (top standard 100,000 cells in 29 µl). Cells which had migrated, and in separate wells, the cells in the standards, were stained with 3 µl of MTT stock solution which was added directly into each well (5 mg/ml in RPMI 1640 without phenol red, Sigma Chemical Co.) and incubated at 37°C for 4 hours. The media was carefully aspirated from each well, and the converted dye was solubilized by 20 µl of DMSO. Absorbance of converted dye was measured at a wavelength of 595 nm using an ELISA plate reader. The number of cells that had migrated in each well was determined by interpolation of the standard curve.
# (§5) To investigate the receptor specificity of peptide 3 inhibition, the ED50 was determined for peptide 3(1-12)[MCP-1] (SEQ ID NO:1) inhibition of THP-1 migration induced by chemokines which signal through different receptors than MCP-1 receptors. […]
# [4] = system: MIP1α induced THP-1 migration; assay: THP-1 trans-well migration assay, MIP1α as chemoattractant; type: cell-based, human; details: for ED50 (µM) versus MIP1α: inhibition of THP-1 migration, n.s./ns = not statistically significant
# Method: as §1, §3, §2, §4, §5
# [5] = THP-1 migration, agent at 100 µM, n.s. or dash = no statistically significant inhibition
Compound,potency as inhibitor of THP-1 migration induced by MCP-1 relative to the D-ala derivative [1],ED50 v MCP-1 ([1]; listed as CRD-Cys13Leu4Ile11peptide 3(3-12)[MCP-1]),ED50 v MCP-1 ([1]; listed as NR58-3.14.3),Duffy selectivity / DARC specificity ratio ([2]; estimated ka for binding to red blood cells divided by average inhibitory ED50),"% inhibition at 100 µM versus SDF-1α [3, 5]",ED50 (µM) versus SDF-1α [3],"% inhibition at 100 µM versus MIP1α [4, 5]",ED50 (µM) versus MIP1α [4],% inhibition at 100 µM versus MCP-1 [1],% inhibition at 100 µM versus MCP-1 ([1]; listed as Peptide 1[MCP-1]),% inhibition at 100 µM versus MCP-1 ([1]; listed as peptide 1[MCP-1]),ED50 (µM) versus MCP-1 [1],ED50 (µM) versus MCP-1 ([1]; listed as Peptide 1[MCP-1]),% inhibition of the MCP-1 induced migration at 100 µM ([1]; peptide introduced with the chemokine in the lower compartment),DARC binding (µM) [2]
CC[C@@H](C)[C@H]1NC(=O)[C@@H](CCC(N)=O)NC(=O)[C@H](N)CSSC[C@H](C(N)=O)NC(=O)[C@@H](CC(C)C)NC(=O)[C@@H](CC(=O)O)NC(=O)[C@H]2CCCN2C(=O)[C@@H](CCCCN)NC(=O)[C@@H](CCC(N)=O)NC(=O)[C@@H](CCCCN)NC(=O)[C@@H](Cc2c[nH]c3ccccc23)NC1=O (H-[dC][dQ][dI][dW][dK][dQ][dK][dP][dD][dL][dC]-NH2; disulfide 1-11),1000 fold,1 to 10 nM,10 nM,> 100,–,–,–,–,–,–,–,–,–,–,–
CC[C@H](C)[C@H](NC(=O)[C@H](C)NC(=O)[C@H](CC(=O)O)NC(=O)[C@@H]1CCCN1C(=O)[C@H](CCC(N)=O)NC(=O)[C@H](C)N)C(=O)N[C@@H](CC(N)=O)C(=O)N[C@@H](C)C(=O)N1CCC[C@H]1C(=O)N[C@H](C(=O)N[C@H](C(=O)N[C@@H](CS)C(=O)N[C@@H](CS)C(=O)O)[C@@H](C)O)C(C)C [Peptide 1] (H-AQPDAINAPVTCC-OH; N-terminus and C-terminus assumed),–,–,–,–,n.s.,n.s.,n.s.^b,n.s.^b,n.s.^b,10%,10%,n.s.^b,> 100 µM,48%,–
=cvaekpsksstirrysc= ([dC][dV][dA][dE][dK][dP][dS][dK][dS][dS][dT][dI][dR][dR][dY][dS][dC]; bridge 1-17 (inferred); not fully specified; printed as =cvaekpsksstirrysc=),–,–,–,–,–,ns,–,ns,–,–,–,ns,–,–,ns
CSYRRITSSKSPKEAVC,–,–,–,–,–,ns,–,ns,–,–,–,ns,–,–,ns

# Source: EP2386565A2, “Compounds and methods to inhibit or augment an inflammatory response” (Cambridge Enterprise Ltd., priority 1999, dated 2000)
